Test results: patent publication US12728118B2, “Methods and compositions for the treatment of corneal endothelium disorders” (The Schepens Eye Research Institute, Inc., priority 2020, dated 2026)
“Also recorded” adds a separate entry of the source.

Legend:
HCEnC-21T cells = experiment: LA-qPCR DNA lesion analysis in HCEnC-21T cells treated with 4-OHE2; format: cell-based, human; settings: 15 μM 4-OHE2; 24 h
Experimental: (§1) Human Corneal Endothelial Cell Culture. Telomerase and SV40 T antigen immortalized normal human CE cell lines HCEnC-21T and HCEnC-SV-67F-16, respectively, were previously generated in our laboratory (26, 62). HCEnC-21T cells were seeded in estrogen-free medium (phenol red-free OptiMEM-I; Thermo Fisher Scientific) with charcoal stripped FBS (HyClone), 200 mg/L calcium chloride (Sigma-Aldrich), 0.08% chondroitin sulfate (Sigma-Aldrich) and treated with 15 μM 4-OHE2 (Steraloids) in phenol red-free OptiMEM-I. UVA Irradiation of Mouse Cornea. A UVA LED light source (M365LP1; Thorlabs) with an emission peak of 365 nm light, 9 nm bandwidth (FWHM) and irradiance of 398 mW/cm 2 was focused to illuminate a 4-mm-diameter spot onto the mouse cornea. The energy was measured using a laser sensor (model L49 [150A]; Ophir), and the time of UVA exposure was adjusted to deliver the appropriate fluence (10 min 29 s for 250 J/cm^2, 20 min 57 s for 500 J/cm^2, 31 min 26 s for 750 J/cm^2, and 41 min 54 s for 1,000 J/cm^2). The right eye (OD) was irradiated while the contralateral eye (OS) was covered with heat retention drapes (SpaceDrapes, Inc.) to serve as untreated control. […]
(§2) DNA Damage Analysis Using LA-qPCR. […] DNA lesion frequencies were calculated as described (24). […]

[1] = system: mouse corneal endothelial cell (MCEnC); experiment: UVA-induced FECD mouse model: corneal endothelial cell density (in vivo confocal HRT / ZO-1 immunostaining); settings: for increase in MCEnC density vs 1,000 J/cm^2 UVA irradiation only / MCEnC density: 2 mo, 1,000 J/cm^2 UVA; for increase in MCEnC density vs 1,000 J/cm^2 UVA irradiation only: NAC in drinking water 1 g/kg from 1 d prior
Experimental: (§3) Experimental Animals. C57BL/6 wild-type mice (male and female, 7 to 15 wk old; The Jackson Laboratory or Charles River) were used for this study. Mice were housed in a climate-controlled animal facility at the Schepens Eye Research Institute (Boston) and kept under cyclic light conditions with 12 h ON or OFF. Mice were anesthetized with a combined dose of ketamine (100 mg/kg) and xylazine (20 mg/kg) administered intraperitoneally. Female mice were irradiated at proestrus stage (61). For the NAC-treated group, mice were fed daily with drinking water containing 1 g of NAC/kg body weight from 1 d prior up to 3 mo post-UVA. All animal experiments were approved by the Institutional Animal Care and Use Committee and adhered to the ARVO Statement for the Use of Animals in Ophthalmic and Vision Research.
Human Corneal Endothelial Cell Culture. Telomerase and SV40 T antigen immortalized normal human CE cell lines HCEnC-21T and HCEnC-SV-67F-16, respectively, were previously generated in our laboratory (26, 62). HCEnC-21T cells were seeded in estrogen-free medium (phenol red-free OptiMEM-I; Thermo Fisher Scientific) with charcoal stripped FBS (HyClone), 200 mg/L calcium chloride (Sigma-Aldrich), 0.08% chondroitin sulfate (Sigma-Aldrich) and treated with 15 μM 4-OHE2 (Steraloids) in phenol red-free OptiMEM-I. UVA Irradiation of Mouse Cornea. A UVA LED light source (M365LP1; Thorlabs) with an emission peak of 365 nm light, 9 nm bandwidth (FWHM) and irradiance of 398 mW/cm 2 was focused to illuminate a 4-mm-diameter spot onto the mouse cornea. The energy was measured using a laser sensor (model L49 [150A]; Ophir), and the time of UVA exposure was adjusted to deliver the appropriate fluence (10 min 29 s for 250 J/cm^2, 20 min 57 s for 500 J/cm^2, 31 min 26 s for 750 J/cm^2, and 41 min 54 s for 1,000 J/cm^2). The right eye (OD) was irradiated while the contralateral eye (OS) was covered with heat retention drapes (SpaceDrapes, Inc.) to serve as untreated control. Mouse eyeballs from CYP1B1-null mice (age 8 to 12 wk, 10 females and 10 males) (31) were enucleated, rinsed with phosphate-buffered saline (PBS), and transported on ice, and cornea excision was performed within 24 h of the animal's death. Four 12-inch RPR-3500A UVA tubes (The Southern New England UV Co.) emitting 350 nm light (irradiance: 7.13 mW/cm 2) were used to irradiate the corneoscleral buttons placed in sterile PBS, with the endothelial side facing the source. The fluence delivered was 25 J/cm^2 (58 min 24 s at a distance of 10 cm). Irradiated corneas were snap-frozen, homogenized using a tissue grinder, and dissolved in methanol:water (2:1) for estrogen metabolite analysis.
The mouse was wrapped with heat retention drapes on the platform that holds the mouse body securely for imaging CE cells by laser scanning IVCM using the Heidelberg Retina Tomograph III (HRT III) with Rostock Corneal Module (RCM) (Heidelberg Engineering). The laser confocal microscope acquires 2D images that represent a coronal section of the cornea of 400×400 μm (160,000 μm^2) at a selectable corneal depth. Acquired images comprise 384×384 pixels and with a lateral resolution of 1 μm per pixel. Digital images were stored on a computer workstation at 3 frames per second.
Analysis of CE Cell Density. The CE density of HRT images acquired before UVA and post-UVA at 2 wk and 1 and 2 mo was analyzed by a semiautomated cell counter in the software Heidelberg Eye Explorer, version 1.3.0 (Heidelberg Engineering GmbH) inbuilt in HRT3. The mean cell density was calculated from 3 mice whose HRT images were counted by at least 2 observers. For each image, an area with at least 50 cells was selected. For CE density calculated from the images of 3 mice with ZO-1 immunostaining, cell count was performed manually by 2 blinded observers using a plug-in for ImageJ 1.46r (https://imagescience.org/meijering/software/imagescience; provided in the public domain by Wayne Rasband, NIH). […]

mouse cornea = experiment: UVA-induced FECD mouse model: central corneal thickness (CCT) by OCT; format: in vivo
Experimental: as §3, §1
In vivo Imaging. […] CCT was measured using inbuilt software.

mouse aqueous humor = experiment: ROS production assay (H2O2, Amplex Red) in mouse aqueous humor after UVA; format: in vivo; settings: 1 d post-UVA
Experimental: as §3, with “All animal experiments were approved by the Institutional Animal Care and Use Committee and adhered to the ARVO Statement for the Use of Animals in Ophthalmic and Vision Research.” left out
(§4) Human Corneal Endothelial Cell Culture. […] The energy was measured using a laser sensor (model L49 [150A]; Ophir), and the time of UVA exposure was adjusted to deliver the appropriate fluence (10 min 29 s for 250 J/cm^2, 20 min 57 s for 500 J/cm^2, 31 min 26 s for 750 J/cm^2, and 41 min 54 s for 1,000 J/cm^2). […]
ROS Production Assay. Extracellular H2O2 levels in the mouse aqueous humor (3 μL), collected using a capillary needle from the dilated mouse anterior chamber, were detected using the Amplex Red Assay Kit (Molecular Probes, Life Technologies) according to manufacturer's instructions. Fluorescence was measured with excitation and emission at 550 and 590 nm, respectively, using a microplate reader (Bio-Tek) with Gen5 software at 37° C.

MCEnCs = experiment: TUNEL assay on whole mount mouse CE after UVA; format: in vivo; settings: females and males; 3 mo post-UVA
Experimental: as §3
as §4, with “Culture. Telomerase and SV40 T antigen immortalized normal human CE cell lines HCEnC-21T and HCEnC-SV-67F-16, respectively, were previously generated in our laboratory (26, 62).” for “Culture.”

MCEnC mtDNA and nDNA = experiment: DNA damage analysis using LA-qPCR in MCEnCs after UVA; format: in vivo, mouse; settings: 1,000 J/cm^2 UVA at 3 mo
Experimental: as §3
as §4, with “Culture. Telomerase and SV40 T antigen immortalized normal human CE cell lines HCEnC-21T and HCEnC-SV-67F-16, respectively, were previously generated in our laboratory (26, 62).” for “Culture.”
as §2

[2] = system: corneal endothelial (CE) cell; experiment: UVA-induced corneal endothelial cell loss in female mice, CYP1B1 inhibitor treatment; format: in vivo, mouse
Experimental: FIG. 12. […] TMS was injected intraperitoneally (1.5 mg/kg) in female mice 1 h prior to 500 J/cm^2 UVA and 3 times a week thereafter for two weeks. Mice similarly injected with DMSO served as the control (n=5; white bar).

[3] = system: corneal endothelial cell (CEnC); experiment: UVA light-induced CEnC loss in NQO1+/+ and NQO1−/− female mice (mouse model of FECD), HRT imaging; format: in vivo
Experimental: A mouse model of FECD was generated by knocking out the NQO1 gene. […] NQO1+/+ and NQO1−/− female mice were irradiated with UVA (500 J/cm^2; time: 20 minutes) to initiate CEnC loss. Either TMS (1 mg/kg) or DMSO (vehicle) was intraperitoneally injected three times a week post-UVA irradiation until week 2 (FIG. 13A). Central corneal thickness (CCT) and Corneal endothelium (CE) imaging was performed using anterior segment-optical coherence tomography (OCT) and Heidelberg Retina Tomograph III (HRT III) prior to UVA irradiation and then at day 1, week 1, week 2, and week 4 post-UVA irradiation. The CE density (cells/mm^2) was quantified by a semi-automated cell counter inbuilt in HRT machine. A mouse model of FECD was generated by knocking out the NQO1 gene. […] NQO1+/+ and NQO1−/− female mice were irradiated with UVA (500 J/cm^2; time: 20 minutes) to initiate CEnC loss. Either berberine (10 mg/kg) or Vehicle (90% PBS+5% Tween-80+5% polyethylene glycol) was intraperitoneally injected immediately after and at week 1 post-UVA irradiation (FIG. 14A). Central corneal thickness (CCT) and corneal endothelium (CE) imaging was performed using anterior segment-optical coherence tomography (AS-OCT) and Heidelberg Retina Tomograph III (HRT III) prior to UVA irradiation and then at day 1, week 1, and week 2, post-UVA irradiation. The CE density (cells/mm^2) was quantified by a semi-automated cell counter inbuilt in HRT machine.

C[C@]12CC[C@@H]3c4ccc(O)c(O)c4CC[C@H]3[C@@H]1CC[C@@H]2O [4-OHE2, 4-hydroxyestradiol]
DNA lesions in the nuclear encoded β-globin gene (HCEnC-21T cells): 0.46 DNA lesions per 10 kb | mtDNA lesions (HCEnC-21T cells): 0.65 DNA lesions per 10 kb

CC(=O)N[C@@H](CS)C(=O)O [NAC, N-acetylcysteine]
morphological and molecular changes induced by UVA ([1]; UVA 1000 J/cm^2, in vivo (FIG. 10)): rescued | increase in MCEnC density vs 1,000 J/cm^2 UVA irradiation only ([1]; females): 1.7 fold | MCEnC density ([1]; females, no-NAC 855±115): 1,521±313 cells per square millimeter | endothelial cell density ([1]; male and female, 3 mo after UVA, ZO-1 immunostaining): significantly rescued | increase in MCEnC density vs 1,000 J/cm^2 UVA irradiation only ([1]; males): 1.6 fold | MCEnC density ([1]; males, no-NAC 944±136): 1,560±136 cells per square millimeter | CCT (mouse cornea; 1 to 3 mo after 1,000 J/cm^2 UVA): remained close to the untreated baseline | CCT vs 1,000 J/cm^2 treated females (mouse cornea; females, 1, 2, and 3 mo after 1,000 J/cm^2 UVA): significant decrease in CCT | CCT vs 1,000 J/cm^2 treated males (mouse cornea; males, 2 wk and 1 and 3 mo after 1,000 J/cm^2 UVA): significant decrease in CCT | ROS formed due to UVA (H2O2 in aqueous humor) (mouse aqueous humor): significantly reduced | TUNEL-positive cells vs non-NAC-treated UVA irradiated mice (MCEnCs): significantly less TUNEL-positive cells | nDNA damage (MCEnC mtDNA and nDNA; both sexes): significantly rescued | mtDNA damage (MCEnC mtDNA and nDNA; females): persisted

COc1cc(/C=C/c2ccc(OC)cc2OC)cc(OC)c1 [TMS, trans-2,3′,4,5′-tetramethoxystilbene]
corneal endothelial cell loss ([2]; 1 week, 2 weeks and 1 month post 500 J/cm^2, 1.5 mg/kg intraperitoneally 1 h prior and 3 times a week for two weeks, vs DMSO, p<0.05): Rescue of corneal endothelial cell loss | endothelial cell degeneration / UVA-induced corneal endothelial cell loss ([2]; mouse model of FECD, in vivo (FIGS. 11 and 12)): delayed the endothelial cell degeneration; also recorded: Rescue of UVA-induced corneal endothelial cell loss | morphology of CEnC vs vehicle ([3]; NQO1+/+ and NQO1−/− female mice, TMS 1 mg/kg ip three times a week, weeks 2 and 4 post-UVA 500 J/cm^2): less irregular morphology | CEnC number vs vehicle ([3]; NQO1+/+ and NQO1−/− female mice, TMS 1 mg/kg ip, weeks 2 and 4 post-UVA 500 J/cm^2): higher CEnC number; also recorded: reduces CEnC loss

COc1ccc2cc3[n+](cc2c1OC)CCc1cc2c(cc1-3)OCO2 [berberine]
morphology of CEnC vs vehicle ([3]; NQO1+/+ and NQO1−/− female mice, berberine 10 mg/kg ip, week 2 post-UVA 500 J/cm^2): less irregular morphology | CEnC number vs vehicle ([3]; NQO1+/+ females, berberine 10 mg/kg ip, week 2 post-UVA): trend towards higher CEnC number | CEnC number vs vehicle ([3]; NQO1−/− females, berberine 10 mg/kg ip, week 2 post-UVA): significantly higher CEnC number | UVA light-induced CEnC loss ([3]; berberine 10 mg/kg, mouse model of Fuchs Dystrophy (FIG. 14 title)): rescues UVA light-induced CEnC loss
